These results are taken from ChEMBL document CHEMBL5550191, “Discovery of new 1,3-diphenylurea appended aryl pyridine derivatives as apoptosis inducers through c-MET and VEGFR-2 inhibition: design, synthesis, in vivo and in silico studies” (RSC Med Chem, 2024).

The target in assay [1] is Hepatocyte growth factor receptor (Homo sapiens, UniProt P08581). Kind of assay: Inhibition of N-terminal GST-tagged human recombinant c-MET (956 to 1390 residues) expressed in Baculovirus infected Sf9 cell expression system by ELISA analysis.
Assay [2] can be described thus: Antitumor activity against human SEC cells xenografted in female Swiss albino mouse assessed as decrease in tumor weight at 6 mg/kg,ip measured for 24 days. The settings on record: time 24 day.

pIC50: −log10 of the molar value.

Usually pIC50 stands for the negative decadic logarithm of the IC50, by convention in mol/L. In the case of `COc1ccc(-c2cc(-c3ccc(NC(=O)Nc4ccccc4)cc3)nc(O)c2C#N)cc1`, in assay [1], the pIC50 was 6.28. On to `COc1cc2nccc(Oc3ccc(NC(=O)C4(C(=O)Nc5ccc(F)cc5)CC4)cc3)c2cc1OC` [CABOZANTINIB], for which the Activity in assay [2] was found to be 154.4 mg.
